Results taken from patent US8431593B2, “Heteroaryl amide derivatives” (H. Lundbeck A/S, priority 2006, dated 2013).
Where two headings read alike, the source gives them in different places. One block for each molecule: values may come before it.

Target: T1, P2X7 receptor (Homo sapiens, UniProt Q99572)
T1 construct: host or cells: SH-SY5Y
T1 sequence (Q99572 1-595): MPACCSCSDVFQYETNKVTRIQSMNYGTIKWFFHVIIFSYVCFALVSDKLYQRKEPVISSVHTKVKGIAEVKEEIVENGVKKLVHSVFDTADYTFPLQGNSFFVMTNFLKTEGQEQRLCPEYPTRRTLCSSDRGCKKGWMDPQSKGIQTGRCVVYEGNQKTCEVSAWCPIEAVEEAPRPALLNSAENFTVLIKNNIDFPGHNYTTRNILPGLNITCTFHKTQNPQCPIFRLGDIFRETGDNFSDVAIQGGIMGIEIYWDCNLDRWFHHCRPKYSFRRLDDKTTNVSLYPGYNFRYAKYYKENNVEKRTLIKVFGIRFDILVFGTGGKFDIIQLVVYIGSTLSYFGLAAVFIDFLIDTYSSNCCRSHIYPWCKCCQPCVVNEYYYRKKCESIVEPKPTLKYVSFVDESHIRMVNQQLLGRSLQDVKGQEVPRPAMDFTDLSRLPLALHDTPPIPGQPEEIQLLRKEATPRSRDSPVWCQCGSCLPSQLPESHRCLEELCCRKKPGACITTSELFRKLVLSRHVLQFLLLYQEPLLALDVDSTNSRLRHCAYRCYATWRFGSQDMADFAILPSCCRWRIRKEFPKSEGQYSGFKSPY
Test: P2X7 calcium mobilization assay, high throughput, antagonist activity (Example 4A)
Assay type: cell-based
In short: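 FLIPR^TETRA calcium read-out: maximum RFU per well minus average no-agonist control, with agonist wells giving the average positive maximum. Cells seeded at 100,000/well one day ahead, dye-loaded 1 h, rinsed, then exposed to compound for 1 h at room temperature.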

[1] = fluorescence response of cells exposed to 80 μM 2′(3′)-O-(4-benzoyl-benzoyl)adenosine 5′-triphosphate, Example 4A, read-out: IC50
[2] = 50% decrease in the fluorescence response of cells exposed to 80 μM of 2′(3′)-O-(4-benzoyl-benzoyl)adenosine 5′-triphosphate, Example 4A, read-out: IC50
[3] = 50% decrease in the fluorescence response of cells exposed to 80 μM of 2′(3′)-O-(4-benzoyl-benzoyl)adenosine 5′-triphosphate, determined as in Example 4A, read-out: IC50
[4] = 50% decrease in the fluorescence response of cells exposed to 80 μM 2′(3′)-O-(4-benzoyl-benzoyl)adenosine 5′-triphosphate, Example 4A, read-out: IC50
[5] = P2X7 calcium mobilization, Example 4A, 50% decrease in the fluorescence response of cells exposed to 80 μM of (2′(3′)-O-(4-benzoyl-benzoyl)adenosine 5′-triphosephate), read-out: IC50
[6] = SH-SY5Y cells, 50% decrease in fluorescence response to 80 μM BzATP, read-out: IC50

SMILES: CCOC(=O)c1cn2c(C(=O)NC(C)C34CC5CC(CC(C5)C3)C4)cccc2n1 (centres unmarked) [Compound 280, ethyl 5-[(1-adamantan-1-ylethyl)carbamoyl] imidazo[1,2-a] pyridine-2-carboxylate]
- IC50 [1]: < 2000 nM

SMILES: O=C(Cc1cn2c(C(=O)NCC3(c4ccc(Cl)cc4)CCCCC3)cccc2n1)NCC(F)(F)F [Compound 875, N-{[1-(4-chlorophenyl)cyclohexyl]methyl}-2-{2-oxo-2-[(2,2,2-trifluoroethyl)amino]ethyl} imidazo[1,2-a] pyridine-5-carboxamide]
- IC50 [3]: < 2000 nM

SMILES: O=C(NCC12CC3CC(CC(C3)C1)C2)c1cccc2nc(CN3CCOCC3)cn12 [Compound 291, N-(adamantan-1-ylmethyl)-2-(morpholin-4-ylmethyl)imidazo[1,2-a]pyridine-5-carboxamide]
- IC50 [1]: < 2000 nM

SMILES: CC1(C)[C@H]2CC[C@@H](CNC(=O)c3cccc4nc(C(=O)N5CCOCC5)cn34)[C@@H]1C2 [Compound 464, N-{[(1S,2R,5S)-6,6-dimethylbicyclo[3.1.1]hept-2-yl]methyl}-2-(morpholin-4-ylcarbonyl)imidazo [1,2-a]pyridine-5-carboxamide]
- IC50 [4]: < 2000 nM

SMILES: CNC1CCN(C(=O)c2cn3c(C(=O)NC[C@@H]4CC[C@H]5C[C@@H]4C5(C)C)cccc3n2)C1 (stereo partly drawn) [Compound 313, N-{[(1S,2R,5S)-6,6-dimethylbicyclo[3.1.1]hept-2-yl]methyl}-2-{[3-(methylamino)pyrrolidin-1-yl]carbonyl}imidazo[1,2-a]pyridine-5-carboxamide]
- IC50 [1]: < 2000 nM

SMILES: O=C(NCC12CC3CC(CC(C3)C1)C2)c1cccc2nc(CCN3C(=O)c4ccccc4C3=O)cn12 [Compound 137, N-(adamantan-1-ylmethyl)-2-[2-(1,3-dioxo-1,3-dihydro-2H-isoindol-2-yl)ethyl]imidazo[1,2-a]pyridine-5-carboxamide]
- IC50 [6]: < 2000 nM

SMILES: O=C(Cc1cn2c(C(=O)NCC34CC5CC(CC(C5)C3)C4)cccc2n1)N[C@H]1CCCNC1 [Compound 852, N-(adamantan-1-ylmethyl)-2-{2-oxo-2-[(3S)-piperidin-3-ylamino]ethyl} imidazo [1,2-a]pyridine-5-carboxamide]
- IC50 [3]: < 2000 nM

SMILES: O=C(O)c1cn2c(C(=O)NCC34CC5CC(CC(C5)C3)C4)cccc2n1 [Compound 686, 5-[(adamantan-1-ylmethyl)carbamoyl] imidazo[1,2-a] pyridine-2-carboxylic acid]
- IC50 [2]: < 2000 nM

SMILES: O=C(NCC12CC3CC(CC(C3)C1)C2)c1cccc2nc(CN3CCCC(C(=O)O)C3)cn12 (centres unmarked) [Compound 191, 1-({5-[(adamantan-1-ylmethyl)carbamoyl]imi-dazo[1,2-a]pyridin-2-yl}methyl)piperidine-3-carboxylic acid]
- IC50: < 2000 nM

SMILES: CC1(C)[C@H]2CC[C@@H](CNC(=O)c3cccc4nc(C(=O)N5CCCC5CN)cn34)[C@@H]1C2 (stereo partly drawn) [Compound 324, 2-{[2-(aminomethyl)pyrrolidin-1-yl]carbonyl}-N-{[(1S,2R,5S)-6,6-dimethylbicyclo[3.1.1]hept-2-yl]methyl}imidazo[1,2-a]pyridine-5-carboxamide]
- IC50 [1]: < 2000 nM

SMILES: CCOC(=O)C(=O)N(CC)Cc1cn2c(C(=O)NCC34CC5CC(CC(C5)C3)C4)cccc2n1 [Compound 541, ethyl [({5-[(adamantan-1-ylmethyl)carbamoyl]imidazo[1,2-a]pyridin-2-yl}methyl)(ethyl)amino] (oxo)acetate]
- IC50 [4]: < 2000 nM

SMILES: O=C(NCC1CCCN1)c1cn2c(C(=O)NCC34CC5CC(CC(C5)C3)C4)cccc2n1 (centres unmarked) [Compound 639, 5-N-(adamantan-1-ylmethyl)-2-N-(pyrrolidin-2-ylmethyl)imidazo[1,2-a]pyridine-2,5-dicarboxamide]
- IC50 [2]: < 2000 nM

SMILES: CC(C)N(CCO)Cc1cn2c(C(=O)NCC34CC5CC(CC(C5)C3)C4)cccc2n1 [Compound 132, N-(adamantan-1-ylmethyl)-2-{[(2-hydroxyethyl)(iso-propyl)amino]methyl}imi-dazo[1,2-a]pyridine-5-carboxamide]
- IC50: < 2000 nM

SMILES: Cc1ccc(C(CNC(=O)c2cccc3nc(CN4CC[C@@H](N)C4)cn23)CC(C)C)cc1 (some centres unmarked) [Compound 760, 2-[(3-aminopyrrolidin-1-yl)methyl]-N-[4-methyl-2-(4-methylphenyl)pentyl] imidazo[1,2-a] pyridine-5-carboxamide]
- IC50 [2]: < 2000 nM

SMILES: CC(C)(CO)c1cn2c(C(=O)NCC34CC5CC(CC(C5)C3)C4)cccc2n1 [Compound 539, N-(adamantan-1-ylmethyl)-2-(2-hydroxy-1,1-dimethylethyl)imidazo [1,2-a]pyridine-5-carboxamide]
- IC50 [4]: < 2000 nM

SMILES: O=C(NCC12CC3CC(CC(C3)C1)C2)c1cccc2nc(CNCCN3CCOCC3)cn12 [Compound 125, N-(adamantan-1-ylmethyl)-2-{[(2-morpholin-4-ylethyl)amino]methyl}imi-dazo[1,2-a]pyridine-5-carboxamide]
- IC50: < 2000 nM

SMILES: Cc1c(C(=O)O)ncn1Cc1cn2c(C(=O)NCC34CC5CC(CC(C5)C3)C4)cccc2n1 [Compound 279, 1-({5-[(adamantan-1-ylmethyl)carbamoyl]imidazo[1,2-a]pyridin-2-yl}methyl)-5-methyl-1H-imidazole-4-carboxylic acid]
- IC50 [1]: < 2000 nM

SMILES: CC(CN(C)C)NC(=O)c1cn2c(C(=O)NCC34CC5CC(CC(C5)C3)C4)cccc2n1 (stereo not drawn) [Compound 653, 5-N-(adamantan-1-ylmethyl)-2-N-[2-(dimethylamino)-l-methylethyl] imidazo[1,2-a]pyridine-2,5-dicarboxamide]
- IC50 [2]: < 2000 nM

SMILES: COCC1CCN(C(=O)c2cn3c(C(=O)NCC45CC6CC(CC(C6)C4)C5)cccc3n2)CC1 [Compound 87, N-(adamantan-1-ylmethyl)-2-{[4-(methoxy-methyl)piperidin-1-yl]carbonyl}imi-dazo[1,2-a]pyridine-5-carboxamide]
- IC50: < 2000 nM

Other lines, results leading:

- IC50 [2]: < 2000 nM
SMILES: O=C(NCC12CC3CC(CC(C3)C1)C2)c1cccc2nc(C(=O)N3CCC(N4CCCC4)C3)cn12 (centres unmarked) [Compound 719, N-(adamantan-1-ylmethyl)-2-(1,3′-bipyrrolidin-1′-ylcarbonyl)imidazo [1,2-a]pyridine-5-carboxamide]

- IC50 [3]: < 2000 nM
SMILES: CCOC(=O)C(CC1CC1)c1cn2c(C(=O)NCC3(c4ccc(Cl)cc4)CCCCC3)cccc2n1 (centres unmarked) [Compound 1009, ethyl 2-[5-({[1-(4-chlorophenyl)cyclohexyl]methyl}carbamoyl)imidazo[1,2-a]pyridin-2-yl]-3-cyclopropylpropanoate]

- IC50 [5]: < 2000 nM
SMILES: O=C(NCC(c1ccc(Cl)cc1)N1CCOCC1)c1cccc2ncc(Br)n12 (centres unmarked) [Compound 1057, 3-bromo-N-[2-(4-chlorophenyl)-2-morpholin-4-ylethyl] imidazo[1,2-a] pyridine-5-carboxamide]

- IC50 [5]: < 2000 nM
SMILES: CC(C)CC(CNC(=O)c1cccc2nc(C(F)(F)F)cn12)c1ccc(Cl)cc1 (centres unmarked) [Compound 1021, N-[2-(4-chlorophenyl)-4-methylpentyl]-2-(trifluoromethyl) imidazo [1,2-a]pyridine-5-carboxamide]

- IC50 [6]: < 2000 nM
SMILES: O=C(NCC12CC3CC(CC(C3)C1)C2)c1cccc2nc(CC(=O)N3CCCC(C(F)(F)F)C3)cn12 (centres unmarked) [Compound 174, N-(adamantan-1-ylmethyl)-2-{2-oxo-2-[3-(trifluoromethyl)piperidin-1-yl]ethyl}imidazo[1,2-a]pyridine-5-carboxamide]

- IC50 [4]: < 2000 nM
SMILES: CC(C)[C@H]1CNCCN1C(=O)c1cn2c(C(=O)NCC34CC5CC(CC(C5)C3)C4)cccc2n1 [Compound 612, N-(adamantan-1-ylmethyl)-2-{[(2S)-2-isopropylpiperazin-1-yl]carbonyl}imidazo[1,2-a]pyridine-5-carboxamide]

- IC50 [5]: < 2000 nM
SMILES: CC(C)CC(CNC(=O)c1cccc2nc(CN3CCC3)cn12)c1ccc(Cl)cc1 (centres unmarked) [Compound 1034, 2-(azetidin-1-ylmethyl)-N-[2-(4-chlorophenyl)-4-methylpentyl] imidazo[1,2-a] pyridine-5-carboxamide]

- IC50 [6]: < 2000 nM
SMILES: CN1CCN(C(=O)c2cn3c(C(=O)NCC45CC6CC(CC(C6)C4)C5)cccc3n2)CC1 [Compound 89, N-(adamantan-1-ylmethyl)-2-[(4-methylpiperazin-1-yl)carbonyl]imidazo[1,2-a]pyridine-5-carboxamide]

- IC50 [5]: < 2000 nM
SMILES: CC(C)CC(CNC(=O)c1cccc2nc(CN3CCCC3)cn12)c1ccc(Cl)cc1 (centres unmarked) [Compound 1036, N-[2-(4-chlorophenyl)-4-methylpentyl]-2-(pyrrolidin-1-ylmethyl) imidazo[1,2-a]pyridine-5-carboxamide]

- IC50 [3]: < 2000 nM
SMILES: CCCCC(C(=O)O)c1cn2c(C(=O)NCC34CC5CC(CC(C5)C3)C4)cccc2n1 (centres unmarked) [Compound 908, 2-{5-[(adamantan-1-ylmethyl)carbamoyl]imidazo[1,2-a]pyridin-2-yl} hexanoic acid]
